Experimental data from patent US9200017B2, “Multimodal imaging of fibrin” (The General Hospital Corporation, priority 2009, dated 2015).

Target: T1, fibrin (clotted fibrinogen from human plasma) (Homo sapiens, UniProt P02671+P02675+P02679)
T1 construct: thrombin cleaves fibrinopeptides on fibrinogen resulting in an end-to-end polymerization to give the polymer fibrin; Fibrinogen from human plasma (Calbiochem); purchased Calbiochem; host or cells: human plasma
T1 sequence (P02671 36-629 isoform P02671-2 limits assumed): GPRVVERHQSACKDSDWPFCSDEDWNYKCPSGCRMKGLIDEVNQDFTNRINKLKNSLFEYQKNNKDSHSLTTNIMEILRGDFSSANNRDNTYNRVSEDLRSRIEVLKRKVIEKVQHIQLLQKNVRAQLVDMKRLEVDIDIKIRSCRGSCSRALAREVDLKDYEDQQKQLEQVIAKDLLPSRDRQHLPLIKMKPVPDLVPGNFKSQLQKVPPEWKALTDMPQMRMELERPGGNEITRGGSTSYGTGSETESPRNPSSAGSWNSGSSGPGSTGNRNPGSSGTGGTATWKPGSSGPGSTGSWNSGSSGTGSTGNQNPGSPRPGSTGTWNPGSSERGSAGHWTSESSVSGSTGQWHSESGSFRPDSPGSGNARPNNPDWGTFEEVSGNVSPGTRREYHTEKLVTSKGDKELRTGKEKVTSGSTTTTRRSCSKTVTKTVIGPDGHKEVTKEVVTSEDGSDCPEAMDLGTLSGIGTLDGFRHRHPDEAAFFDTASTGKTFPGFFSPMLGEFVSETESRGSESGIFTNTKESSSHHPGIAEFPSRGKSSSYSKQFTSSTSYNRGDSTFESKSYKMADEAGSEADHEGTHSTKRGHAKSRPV
T1 sequence (P02675 45-491 limits assumed): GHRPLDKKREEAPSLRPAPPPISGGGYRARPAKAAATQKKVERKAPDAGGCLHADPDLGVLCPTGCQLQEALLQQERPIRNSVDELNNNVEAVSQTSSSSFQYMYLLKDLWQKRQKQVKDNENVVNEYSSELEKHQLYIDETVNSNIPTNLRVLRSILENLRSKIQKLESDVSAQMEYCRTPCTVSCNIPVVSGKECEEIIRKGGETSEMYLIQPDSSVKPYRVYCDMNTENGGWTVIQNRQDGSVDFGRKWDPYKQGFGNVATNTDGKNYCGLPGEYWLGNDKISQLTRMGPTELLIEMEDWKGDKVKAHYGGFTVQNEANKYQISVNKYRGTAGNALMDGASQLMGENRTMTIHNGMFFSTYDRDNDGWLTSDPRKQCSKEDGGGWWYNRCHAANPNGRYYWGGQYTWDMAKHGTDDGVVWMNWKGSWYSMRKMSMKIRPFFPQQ
T1 sequence (P02679 27-437 isoform P02679-2 limits assumed): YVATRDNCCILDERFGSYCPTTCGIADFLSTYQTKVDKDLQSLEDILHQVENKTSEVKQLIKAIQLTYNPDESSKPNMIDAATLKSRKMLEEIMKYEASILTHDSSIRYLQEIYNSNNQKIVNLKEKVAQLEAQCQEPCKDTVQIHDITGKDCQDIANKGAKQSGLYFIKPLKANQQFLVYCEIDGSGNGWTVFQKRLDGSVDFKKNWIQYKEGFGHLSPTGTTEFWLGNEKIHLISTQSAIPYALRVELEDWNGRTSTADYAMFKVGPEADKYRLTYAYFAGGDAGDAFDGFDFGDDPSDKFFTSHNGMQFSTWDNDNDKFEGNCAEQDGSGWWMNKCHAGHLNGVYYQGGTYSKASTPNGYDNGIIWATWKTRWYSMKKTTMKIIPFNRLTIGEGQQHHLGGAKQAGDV
Test: Fibrin binding of Cu-64 labeled probes, dried fibrin plate, percentage bound
Conditions: dried fibrin wells, 37° C., unbound probe by well counting
Protocol: Fibrinogen from human plasma (Calbiochem) was dialyzed against 50 mM Tris, pH 7.4, 150 mM sodium chloride, 5 mM sodium citrate (TBS·citrate). The fibrinogen concentration was adjusted to 5 mg/mL and CaCl2 was added (7 mM). The fibrinogen solution (50 μL) was dispensed into the wells of a 96-well polystyrene microplate (Immulon-II). A solution (50 μL) of human thrombin (2 U/mL) in TBS was added to each well to clot the fibrinogen. The plates were incubated at 37° C. and evaporated to dryness overnight. The plates were sealed with tape and stored at −20° C. until use. The wells with dried fibrin were incubated at 37° C. with known concentrations of the probes. The concentration of the unbound probe was determined by well counting. The concentration of the bound probe=[total]−[unbound]. The percentage bound probe was given by [(bound probe)/total probe)]×100.

- % bound (percentage bound probe): 98.7%
Substance: Gd3-EP-2104R-Cu [Compound 21]
